Columns and labels:
[1] = target: T1, recombinant human calcineurin catalytic domain, calcineurin(2-347) (Homo sapiens, UniProt Q08209, L343A/M347D/Y341S); test: fluorescence polarization competition assay, displacement of OG-VIVIT from calcineurin; type: binding; conditions: for displacement of OG-VIVIT from calcineurin: at high concentrations, 1 μM calcineurin, 60 nM OG-VIVIT; for IC50: calcineurin-VIVIT peptide interaction, read-out: Estimated IC50
T1 construct: GST (N, cleaved yes); made in house; host or cells: E. coli strain DH5α
Procedure: Samples were analyzed as described in the preceding paragraph, and the resulting polarization data were plotted against the concentration of unlabelled VIVIT peptide, as shown in FIG. 8B.
The library stocks were dissolved at a nominal concentration of 10 mM in DMSO, and formatted for convenient robotic transfer on 384-well plates at the Institute of Chemistry and Cell Biology, Harvard Medical School. To initiate the competition assay, 40 nl volumes were pin-transferred from each well of a library stock plate to the corresponding wells of an assay plate, utilizing a robotic device. After a minimum 10 min incubation at room temperature to allow the binding to reach equilibrium, fluorescence polarization data were collected employing an Analyst plate reader (Molecular Devices).
Stocks of candidate inhibitor compounds and their structural analogues were purchased from ChemBridge or Asinex. The structure and purity of individual compounds were verified by ^1H NMR, mass spectrometry, or thin-layer chromatography. […] INCA1, INCA2, and INCA6 can be represented generally as follows: […]

calcineurin [2] = target: calcineurin (Homo sapiens, UniProt Q08209, L343A/M347D/Y341S); test: 1H NMR titration spectroscopy binding experiments; conditions: 10 μM compound, 20 μM calcineurin, 25° C., buffered D2O
Procedure: T2-filtered ^1H NMR spectra were obtained on a Bruker Avance 600 instrument with CryoPhobe using low-power presaturation of residual water. Preacquisition delays included up to five spin echos to suppress fast-relaxing broad protein resonances and were times to yield in-phase signals for J-coupled spins. Chemical shifts were referenced to internal standard 5 μM 2,2-dimethylsilapentane-5-sulfonic acid (DSS).

[3] = target: T2, dephosphorylation of NFAT by calcineurin (Homo sapiens, UniProt Q08209); test: in vitro dephosphorylation of NFAT1 in C1.7W2 T cell lysates by recombinant calcineurin; type: biochemical; conditions: 500 nM calcineurin, 600 nM calmodulin, 30 minutes at 30° C.; INCA2 at micromolar concentrations
Procedure: Dephosphorylation produces a change in mobility that is visible as a shift in the immunostained NFAT band.
Cell lysates were made from C1.7W2 T cells washed in PBS/2 mM EGTA, 10 mM iodoacetamide, collected by centrifugation, and resuspended at 80×10^6 cells/ml in chilled lysis buffer consisting of 10 mM KAc, 2 mM MgAc2, 2 mM EGTA, 100 mM HEPES/NaHEPES pH 7.4, 0.2% NP-40, 10 mM iodoacetamide, 2 mM PMSF, 20 μg/ml aprotinin, and 50 μM leupeptin. After incubation for 10 minutes on wet ice, the nuclei and cell debris were pelleted in a refrigerated microcentrifuge at 4° C. by centrifugation for 5 minutes at 13,500 rpm, and the resulting supernatant recovered with a prechilled pipette tip, rapidly frozen using a dry ice/ethanol bath, and stored at −80° C.
The dephosphorylation reaction was initiated by addition of 0.6 μl lysate per 20 μl reaction.

calcineurin [4] = target: T3, calcineurin (Homo sapiens, UniProt Q08209); test: calcineurin phosphatase assay with phosphorylated RII peptide, Malachite green detection; type: biochemical; conditions: 100 μM INCA compound or 100 μM VIVIT peptide; 6.8 nM calcineurin, 15 min at 25° C.
calcineurin [5] = target: T3, calcineurin; test: dephosphorylation of GST-Tau protein by calcineurin; type: biochemical
calcineurin [6] = target: T3, calcineurin; test: in vitro dephosphorylation of recombinant 32P-labelled RIIα protein by calcineurin; type: biochemical
Procedure: Dephosphorylation was allowed to proceed during 45 min at 30° C., samples were resolved by SDS-PAGE, and the gel was stained with Coomasie Brilliant Blue, dried, and autoradiographed. A phosphorimager was used to quantitate the level of ^32P in each lane.

calcineurin [7] = target: T3, calcineurin; test: dephosphorylation of 32P-RII phosphopeptide by calcineurin; type: biochemical; conditions: 32P-RII phosphopeptide 100 μM, calcineurin 100 nM; peptides 30 μM to 400 μM; FK506/FKBP12 10 μM/10 μM
Procedure: The dephosphorylation reaction was allowed to proceed for 30 min at 30° C. after which the reaction was stopped by addition of excess 0.1% trichloroacetic acid, substrate peptide was removed by adsorption onto a cation exchange resin (AG50W; BioRad Laboratories, Hercules, Calif.), and released ^32P label in the supernatant was measured in a liquid scintillation counter.

[8] = target: dephosphorylation of NFAT4 by calcineurin (Homo sapiens, UniProt Q08209); test: dephosphorylation of HA-NFAT4(1-407)-GFP in HEK-293 cytosolic extracts by calcineurin/calmodulin; type: biochemical; conditions: wild type 13-mer 100 μM or 400 μM; mutant 400 μM; calcineurin/calmodulin 100 nM to 900 nM
Procedure: (§1) The HA-tagged N-terminal domains of NFAT1 and NFAT4 were expressed as the fusion proteins HA-NFAT1(1-460)-GFP and HA-NFAT4(1-407)-GFP in HEK-293 cells. […] Dephosphorylation was allowed to proceed for 30 min at 30° C., and samples were analyzed by SDS-PAGE and Western blotting with anti-HA antibody.

[9] = target: T4, dephosphorylation of NFAT1 by calcineurin (Homo sapiens, UniProt Q08209); test: dephosphorylation of HA-NFAT1(1-460)-GFP in HEK-293 cytosolic extracts by calcineurin/calmodulin; type: biochemical; conditions: wild type 13-mer 100 μM or 400 μM; mutant 400 μM; calcineurin/calmodulin 100 nM to 900 nM
Procedure: as §1

[10] = target: calcineurin binding to GST-NFAT1 (Homo sapiens, UniProt Q08209); test: binding of activated calcineurin to GST-NFAT1(1-415), glutathione-Sepharose collection and Western blotting
[11] = target: T4, dephosphorylation of NFAT1 by calcineurin; test: in vitro dephosphorylation of NFAT1(1-460)-GFP by calcineurin in HeLa cytosolic extracts, Western blotting; type: biochemical
Procedure: Samples were resolved by SDS-PAGE and dephosphorylation was assessed with anti-HA antibody 12CA5. […] Slightly higher concentrations of the peptides were required to inhibit the in vitro dephosphorylation than were required to inhibit NFAT-calcineurin binding, presumably due to some degradation of the peptides by enzymes present in the cell extracts.

[12] = target: T2, dephosphorylation of NFAT by calcineurin; test: calcineurin-mediated dephosphorylation of HA-NFAT1(1-460)-GFP in HeLa cell lysates; type: biochemical; conditions: 200 nM calcineurin, 600 nM calmodulin, 30 min at 30 C.; peptide amounts as in FIG. 5B
Procedure: The phosphorylation status of NFAT was evaluated by SDS-polyacrylamide gel electrophoresis and Western blotting with anti-HA antibody 12CA5.

[13] = target: calcineurin binding to NFAT1 (Homo sapiens, UniProt Q08209); test: 125I-calcineurin binding to GST-NFAT1(1-400) immobilized on glutathione-Sepharose beads; conditions: at concentrations up to 100 μM
[14] = test system: NFAT-dependent reporter gene (3×NFAT-Luc) in Jurkat cells; test: 3×NFAT-Luc luciferase reporter in transfected Jurkat cells; type: cell-based, human; conditions: GFP fusion expressed in Jurkat cells; PMA and ionomycin 6 hours
Procedure: Twenty-four hours after transfection, cells were left unstimulated, stimulated for 6 hours with 20 nM phorbol 12-myristate 13-acetate (PMA) and 1 μM ionomycin, or stimulated for 6 hours with 0.2 μg/ml immobilized anti-CD3 (HIT3a, Pharmingen) and 0.5 μg/ml soluble anti-CD28 (CD28.2, Pharmingen). CsA was added 30 min before the stimuli. Luciferase activity in cell lysates was measured using a luciferase assay system (Promega) and was normalized to the concentration of hGH in the cell culture medium determined with a radioimmunometric assay kit (Hybritech).
In the right panel are data from Jurkat cells that had been cotransfected with a 3×NFAT-Luc reporter plasmid and with expression plasmids encoding murine NFAT1, human NFAT2, or human NFAT4 as indicated. Twenty-four hours after transfection, cells were left unstimulated (Unstimulated; open bars) or were stimulated for 6 hours with PMA and ionomycin (PMA+iono; solid bars), cell lysates were prepared, and luciferase activity attributable to endogenous NFAT (Endog.) or to overexpressed NFAT proteins was measured.
Twenty-four hours after transfection, cells were left untreated (open bars) or were stimulated for 6 hours with PMA and ionomycin (solid bars).

[15] = peptide concentrations in the range from 16 μM to 400 μM, calcineurin 200 nM, calmodulin 600 nM, 30 min at 30° C.

CC(=O)C(C(C)=O)C1=C(Cl)C(=O)C(=O)c2c(C(=O)c3ccccc3)coc21 [INCA1] was tested, and the Ki [1] was 500 to 2000 nM, the “displacement of OG-VIVIT from calcineurin” value [1] was “complete” and the IC50 [1] was 1000 nM. For the same compound, the “binding to calcineurin in the absence of VIVIT peptide” value (calcineurin [2]) was “direct molecular interaction”.
With O=C1C(Cl)=C(Cl)C(=NS(=O)(=O)c2ccccc2)c2ccccc21 [INCA2] the “dephosphorylation of NFAT by calcineurin in vitro” value [3] was “blocked”, the Ki [1] was 100 to 500 nM and the “displacement of OG-VIVIT from calcineurin” value [1] was “complete”. For the same compound, the IC50 [1] was 3000 nM, the “release of free phosphate from RII phosphopeptide” value (calcineurin [4]) was “not affected” and the “binding to calcineurin in the absence of VIVIT peptide” value (calcineurin [2]) was “direct molecular interaction”.
With O=P([O-])([O-])OP(=O)([O-])[O-].[Na+].[Na+].[Na+].[Na+] [sodium pyrophosphate, reference compound] the “dephosphorylation of NFAT by calcineurin in vitro” value [3] was “no dephosphorylation”, the “inhibition of dephosphorylation of GST-Tau protein by control inhibitors” value (calcineurin [5]; sodium pyrophosphate 10 mM, CsA/cyclophilin […] μM/5 μM) was “efficiently inhibited” and the “inhibition of dephosphorylation of RIIα protein by control inhibitors” value (calcineurin [6]; sodium pyrophosphate 20 mM, CsA/cyclophilin […] μM/5 μM, FK506/FKBP12 4 μM/4 μM) was “efficiently inhibited”.
In the case of CC[C@H](C)[C@H](NC(=O)[C@H](CCCNC(=N)N)NC(=O)[C@@H]1CCCN1C(=O)[C@H](CO)NC(=O)[C@@H]1CCCN1C(=O)CNC(=O)[C@@H](N)CO)C(=O)N[C@@H](CCC(=O)O)C(=O)N[C@H](C(=O)N[C@H](C(=O)N1CCC[C@H]1C(=O)N[C@@H](CO)C(=O)N[C@@H](Cc1c[nH]cn1)C(=O)O)[C@@H](C)O)[C@@H](C)CC [wild type 13-mer peptide], the “inhibition of dephosphorylation of the RII peptide by calcineurin” value (calcineurin [7]) is reported as “Neither of the SPRIEITPS peptides inhibited”, the “inhibition of dephosphorylation of HA-NFAT4(1-407)-GFP” value [8] is reported as “inhibited dephosphorylation” and the “inhibition of dephosphorylation of HA-NFAT1(1-460)-GFP” value [9] is reported as “inhibited dephosphorylation”. The “inhibition of the binding of activated calcineurin to GST-NFAT1” value ([10]; 200 nM calcineurin, 600 nM calmodulin, 2 mM CaCl2, peptide amounts as in FIG. 5A) was “inhibited”, the “inhibition of dephosphorylation of NFAT1 by calcineurin in vitro” value (“inhibition … by calcineurin in vitro” below) [11, 15] was “inhibited” and the “inhibition of NFAT dephosphorylation” value [12] was “effective”.
CC[C@H](C)[C@H](NC(=O)[C@H](CCCNC(=N)N)NC(=O)[C@@H]1CCCN1C(=O)[C@H](CO)NC(=O)[C@@H]1CCCN1C(=O)CNC(=O)[C@H](CO)NC(=O)[C@H](C)NC(=O)CNC(=O)[C@H](C)NC(=O)[C@@H]1CCCN1C(=O)[C@@H](N)CCCCN)C(=O)N[C@@H](CCC(=O)O)C(=O)N[C@H](C(=O)N[C@H](C(=O)N1CCC[C@H]1C(=O)N[C@@H](CO)C(=O)N[C@@H](Cc1c[nH]cn1)C(=O)N[C@@H](CCC(=O)O)C(=O)N[C@@H](CC(C)C)C(=O)N[C@@H](CCSC)C(=O)N[C@@H](CCC(N)=O)C(=O)N[C@@H](C)C(=O)NCC(=O)NCC(=O)N[C@@H](Cc1ccc(O)cc1)C(=O)O)[C@@H](C)O)[C@@H](C)CC [wild type 26-mer peptide] was tested, and the “inhibition of dephosphorylation of the RII peptide by calcineurin” value (calcineurin [7]) was “Neither of the SPRIEITPS peptides inhibited”, the “inhibition of dephosphorylation of GST-Tau protein by calcineurin” value (calcineurin [5]; peptide 20 μM and 100 μM, calcineurin 200 nM, 90 min at 30° C.) was “not inhibited” and the inhibition at 500 µM (calcineurin [5]; read-out: inhibition of dephosphorylation of GST-Tau protein by calcineurin, peptide 500 μM) was 10%. The “inhibition of dephosphorylation of NFAT1” value ([11]; 500 μM peptide) was “fully inhibited”, the “inhibition … by calcineurin in vitro” value [11, 15] was “inhibited” and the “inhibition of dephosphorylation of RIIα protein” value (calcineurin [6]; peptide 20 μM and 100 μM, calcineurin 200 nM, 45 min at 30° C.) was “did not inhibit”. For the same compound, the inhibition at 500 µM (calcineurin [6]; peptide 500 μM) was 18%.
For “CM2 mutant 26-mer peptide: 26-mer control peptide with R112 to A, E114 to A, T116 to A substitutions and appended tyrosine (KPAGASGPSPAIAIAPSHELMQAGGY) [reference compound]”, the “inhibition of dephosphorylation of HA-NFAT4(1-407)-GFP” value [8] was “little or no inhibition”, the “inhibition of dephosphorylation of HA-NFAT1(1-460)-GFP” value [9] was “little or no inhibition” and the “inhibition of calcineurin binding to GST-NFAT1” value ([10]; peptide 100 μM) was “did not inhibit”. For the same compound, the “inhibition of the NFAT1-calcineurin interaction” value [13] was “did not inhibit” and the “inhibition … by calcineurin in vitro” value ([11]; only at concentrations above 400 μM) was “only marginally inhibitory”.
For “GFP-SPRIEIT: GFP-SPRIEIT fusion protein, expression vector previously described (Aramburu et al 1998)”, the “block of induced luciferase expression, endogenous NFAT” value [14] was “partially blocked”.
